Columns and labels:
Assay type in all cases: in vivo
[1] = tested on: pigweed (Amaranthus retroflexus); assay: Test D pre-/postemergence: pigweed
Method in brief: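 Pre- and postemergence herbicide screen. Soil for pre: silt loam; post medium: peat moss, vermiculite, wetting agent, starter nutrients. Plant stage at post: 1- to 4-leaf. Readout: visual % control, 14–21 days.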

[2] = tested on: sedge, umbrella (small-flower umbrella sedge, Cyperus difformis); assay: Test C flooded paddy test: sedge, umbrella; settings: scale 0 to 100 (0 no effect, 100 complete control)
Method in brief: (§1)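 Plants were grown to the 2-leaf stage, pots flooded to 3 cm above soil, and test compounds applied directly to the paddy water, with that depth held throughout. After 13 to 15 days in a greenhouse, injury was visually rated against controls on a 0 (no effect) to 100 (complete control) scale.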

[3] = tested on: ducksalad (Heteranthera limosa); assay: Test C flooded paddy test: ducksalad; settings: scale 0 to 100 (0 no effect, 100 complete control)
Method in brief: as §1

[4] = tested on: chamomile (scentless chamomile, Matricaria inodora); assay: Test D pre-/postemergence: chamomile
Excerpt: Seeds of plant species selected from bluegrass (annual bluegrass, Poa annua), blackgrass (Alopecurus myosuroides), canarygrass (Phalaris minor), chickweed (common chickweed, Stellaria media), galium (catchweed bedstraw, Galium aparine), bromegrass, downy (downy bromegrass, Bromus tectorum), field poppy (Papaver rhoeas), field violet (Viola arvensis), foxtail, green (green foxtail, Setaria viridis), deadnettle (henbit deadnettle, Lamium amplexicaule), ryegrass, Italian (Italian ryegrass, Lolium multiflorum), kochia (Kochia scoparia), lambsquarters (Chenopodium album), oilseed rape (Brassica napus), pigweed (Amaranthus retroflexus), Russian thistle (Salsola iberica), chamomile (scentless chamomile, Matricaria inodora), speedwell (bird's-eye speedwell, Veronica persica), barley, spring (spring barley, Hordeum vulgare), wheat, spring (spring wheat, Triticum aestivum), buckwheat, wild (wild buckwheat, Polygonum convolvulus), mustard, wild (wild mustard, Sinapis arvensis), oat, wild (wild oat, Avena fatua), radish, wild (wild radish, Raphanus raphanistrum), windgrass (Apera spica-venti), barley, winter (winter barley, Hordeum vulgare), and wheat, winter (winter wheat, Triticum aestivum) were planted into a silt loam soil and treated preemergence with test chemicals formulated in a non-phytotoxic solvent mixture which included a surfactant. At the same time, these same crop and weed species were planted in pots containing the planting medium comprising spaghnum peat moss, vermiculite, wetting agent and starter nutrients and treated with postemergence applications of the test chemicals formulated in the same manner. Plants ranged in height from 2 to 18 cm (1- to 4-leaf stage).
(§2) Treated plants and controls were maintained in a controlled growth environment for 14 to 21 days after which time all species were compared to controls and visually evaluated. Plant response ratings, summarized in Table D, are based on a scale of 0 to 100 where 0 is no effect and 100 is complete control. A dash (-) response means no test result.

[5] = tested on: sandbur (southern sandbur, Cenchrus echinatus); assay: Test F pre-/postemergence: sandbur
Excerpt: (§3) Seeds of plant species selected from corn (Zea mays), soybean (Glycine max), velvetleaf (Abutilon theophrasti), lambsquarters (Chenopodium album), poinsettia, wild (wild poinsettia, Euphorbia heterophylla), pigweed, palmer (palmer pigweed, Amaranthus palmeri), waterhemp (common waterhemp, Amaranthus rudis), surinam grass (Brachiaria decumbens), crabgrass, Brazil (Brazilian crabgrass, Digitaria horizontalis), panicum, fall (fall panicum Panicum dichotomiflorum), crabgrass, large (large crabgrass, Digitaria sanguinalis), foxtail, giant (giant foxtail, Setaria faberii), foxtail, green (green foxtail Setaria viridis), goosegrass (Eleusine indica), ragweed (common ragweed, Ambrosia elatior), barnyardgrass (Echinochloa crus-galli), sandbur (southern sandbur, Cenchrus echinatus), arrowleaf sida (Sida rhombifolia), ryegrass, Italian (Italian ryegrass, Lolium multiflorum), dayflower, VA (Virginia (VA) dayflower, Commelina virginica), field bindweed (Convolvulus arvensis), cocklebur (common cocklebur, Xanthium strumarium), morningglory (Ipomoea coccinea), nightshade (eastern black nightshade, Solanum ptycanthum), kochia (Kochia scoparia), nutsedge, yellow (yellow nutsedge, Cyperus esculentus), johnsongrass (Sorghum halepense), smartweed (ladysthumb smartweed, Polygonum persicaria), and beggarticks (hairy beggarticks, Bidens pilosa), were planted into a silt loam soil and treated preemergence with test chemicals formulated in a non-phytotoxic solvent mixture which included a surfactant. At the same time, plants selected from these crop and weed species and also pigweed (Amaranthus retroflexus), waterhemp_RES1 (ALS/Triazine resistant common waterhemp, Amaranthus rudis) and waterhemp_RES2 (ALS/HPPD resistant common waterhemp, Amaranthus rudis) were planted in pots containing a planting medium comprising spaghnum peat moss, vermiculite, wetting agent and starter nutrients treated with postemergence applications of some of the test chemicals formulated in the same manner. Plants ranged in height from 2 to 18 cm for postemergence treatments (1- to 4-leaf stage).
as §2, with “greenhouse” for “controlled growth environment”, “days,” for “days”, “E,” for “D,”

[6] = tested on: morningglory (Ipomoea coccinea); assay: Test F pre-/postemergence: morningglory; settings: Preemergence
Excerpt: as §3
as §2, with “greenhouse” for “controlled growth environment”, “days,” for “days”, “E,” for “D,”

[7] = tested on: dayflower, VA (Virginia (VA) dayflower, Commelina virginica); assay: Test F pre-/postemergence: dayflower, VA
Excerpt: as §3
as §2, with “greenhouse” for “controlled growth environment”, “days,” for “days”, “E,” for “D,”

[8] = tested on: nutsedge, yellow (yellow nutsedge, Cyperus esculentus); assay: Test F pre-/postemergence: nutsedge, yellow; settings: Preemergence
Excerpt: as §3
as §2, with “greenhouse” for “controlled growth environment”, “days,” for “days”, “E,” for “D,”

[9] = Postemergence, 31 g ai/ha, scale 0 to 100 (0 no effect, 100 complete control)
[10] = Postemergence, 62 g ai/ha, scale 0 to 100 (0 no effect, 100 complete control)
[11] = Postemergence, 125 g ai/ha, scale 0 to 100, 0 no effect, 100 complete control
[12] = Postemergence, 250 g ai/ha, scale 0 to 100 (0 no effect, 100 complete control)
[13] = Postemergence, 16 g ai/ha, scale 0 to 100
[14] = Preemergence, 16 g ai/ha, scale 0 to 100, 0 no effect, 100 complete control
[15] = Preemergence, 31 g ai/ha, scale 0 to 100, 0 no effect, 100 complete control
[16] = Preemergence, 62 g ai/ha, scale 0 to 100
[17] = Preemergence, 125 g ai/ha, scale 0 to 100
[18] = Preemergence, 250 g ai/ha, scale 0 to 100
[19] = Flood (flooded paddy test), 125 g ai/ha, visual rating after 13 to 15 days
[20] = Flood (flooded paddy test), 250 g ai/ha, visual rating after 13 to 15 days
[21] = 16 g ai/ha, scale 0 to 100, 0 no effect, 100 complete control
[22] = 31 g ai/ha, scale 0 to 100, 0 no effect, 100 complete control
[23] = Postemergence, 8 g ai/ha, scale 0 to 100
[24] = Postemergence, 31 g ai/ha, scale 0 to 100
[25] = Postemergence, 62 g ai/ha, scale 0 to 100
[26] = Postemergence, 125 g ai/ha, scale 0 to 100

Cc1nn(-c2ccc(C(F)(F)F)cc2)nc1Oc1ccnc(C(F)(F)F)c1 [Compound 120]
Plant response rating: Pigweed [1, 9]: 90
Plant response rating: Pigweed [1, 10]: 90
Plant response rating: Pigweed [1, 11]: 100
Plant response rating: Pigweed [1, 12]: 100
Plant response rating, Pigweed [1, 13]: 0
Plant response rating, Pigweed [1, 14]: 30
Plant response rating, Pigweed [1, 15]: 100
Plant response rating, Pigweed [1, 16]: 100
Plant response rating, Pigweed [1, 17]: 100
Plant response rating, Pigweed [1, 18]: 100
Plant response rating, Sedge, Umbrella [2, 19]: 90
Plant response rating, Sedge, Umbrella [2, 20]: 90
Plant response rating, Sedge, Umbrella ([2]; Flood, 62 g ai/ha): 85
Plant response rating, Ducksalad [3, 19]: 80
Plant response rating, Ducksalad [3, 20]: 85
Plant response rating, Ducksalad ([3]; Flood, 62 g ai/ha): 70
Plant response rating: Chamomile [4, 9]: 25
Plant response rating: Chamomile [4, 10]: 40
Plant response rating: Chamomile [4, 11]: 80
Plant response rating: Chamomile [4, 12]: 90
Plant response rating, Chamomile [4, 13]: 10
Plant response rating, Chamomile [4, 14]: 0
Plant response rating, Chamomile [4, 15]: 10
Plant response rating, Chamomile [4, 16]: 20
Plant response rating, Chamomile [4, 17]: 100
Plant response rating, Chamomile [4, 18]: 100

COc1nn(-c2cccc(F)c2)nc1Cc1ccnc(C(F)(F)F)c1 [Compound 139]
Plant response rating, Sandbur [5, 14]: 0
Plant response rating, Sandbur [5, 15]: 5
Plant response rating, Sandbur [5, 17]: 35
Plant response rating, Sandbur [5, 18]: 40
Plant response rating, Morningglory [6, 21]: 0
Plant response rating, Morningglory [6, 22]: 0
Plant response rating, Morningglory ([6]; 125 g ai/ha, scale 0 to 100): 5
Plant response rating, Morningglory ([6]; 250 g ai/ha, scale 0 to 100): 20
Plant response rating, Dayflower, VA [7, 14]: 0
Plant response rating, Dayflower, VA [7, 15]: 5
Plant response rating, Dayflower, VA [7, 16]: 30
Plant response rating, Dayflower, VA [7, 17]: 60
Plant response rating, Dayflower, VA [7, 18]: 65
Plant response rating, Nutsedge, Yellow [8, 21]: 0
Plant response rating, Nutsedge, Yellow [8, 22]: 0
Plant response rating, Nutsedge, Yellow ([8]; 125 g ai/ha, scale 0 to 100): 0
Plant response rating, Nutsedge, Yellow ([8]; 250 g ai/ha, scale 0 to 100): 0

Cc1nn(-c2ccnc(Cl)c2)nc1Cc1ccnc(C(F)(F)F)c1 [Compound 141]
Plant response rating, Sandbur [5, 23]: 10
Plant response rating, Sandbur [5, 13]: 10
Plant response rating, Sandbur [5, 24]: 20
Plant response rating, Sandbur [5, 25]: 30
Plant response rating, Sandbur [5, 26]: 35
Plant response rating, Dayflower, VA [7, 23]: 10
Plant response rating, Dayflower, VA [7, 13]: 10
Plant response rating, Dayflower, VA [7, 24]: 35
Plant response rating, Dayflower, VA [7, 25]: 60
Plant response rating, Dayflower, VA [7, 26]: 75

From patent publication US9302999B2, “Substituted triazoles as herbicides” (E. I. DU PONT DE NEMOURS AND COMPANY, priority 2012, dated 2016)
